Assay: Toxicity in brine shrimp after 24 hrs
Format: organism-based
Conditions: artemia, in vivo

SMILES	LC50 at 24 h
C[C@@H]1O[C@@H](Oc2cc(O)c3c(=O)c(O)c(-c4ccc(O)cc4)oc3c2)[C@H](OC(=O)/C=C/c2ccc(O)cc2)[C@H](OC(=O)/C=C/c2ccc(O)cc2)[C@H]1O	400 µM
CC(=O)Oc1ccc(-c2oc3cc(OC(C)=O)cc(O)c3c(=O)c2OC(C)=O)cc1	2210 µM
C[C@@H]1O[C@@H](Oc2cc(O)c3c(=O)c(O)c(-c4ccc(O)cc4)oc3c2)[C@H](OC(=O)/C=C/c2ccc(O)cc2)[C@H](O)[C@H]1O	570 µM

From ChEMBL document CHEMBL1151282, “Flavonoids and benzene derivatives from the flowers and fruit of Tetrapanax papyriferus” (J Nat Prod, 2005)
